Measured values as given in ChEMBL document CHEMBL1137107, “Design, synthesis, and evaluation of hexahydrobenz[f]isoquinolines as a novel class of dopamine 3 receptor ligands” (Bioorg Med Chem Lett, 2004).

Experiments:
[1] = Binding affinity towards D1-like dopamine receptor in caudate-putamen membranes of sprague-dawley rat brain by using [3H]-SCH- 23390 as radioligand; format: cell membranes, Membrane
[2] = Binding affinity towards D2-like dopamine receptor in caudate-putamen membranes of sprague-dawley rat brain by using [3H]spiperone as radioligand; format: cell membranes, Membrane
[3] = species: Rattus norvegicus; assay: Ratio of binding affinity for D1-like receptor to that of dopamine D3 receptor
[4] = species: Rattus norvegicus; assay: Ratio of binding affinity for D2-like receptor to that of dopamine D3 receptor
[5] = molecular target: D(3) dopamine receptor (Rattus norvegicus, UniProt P19020)
D(3) dopamine receptor, sequence (P19020 whole entry): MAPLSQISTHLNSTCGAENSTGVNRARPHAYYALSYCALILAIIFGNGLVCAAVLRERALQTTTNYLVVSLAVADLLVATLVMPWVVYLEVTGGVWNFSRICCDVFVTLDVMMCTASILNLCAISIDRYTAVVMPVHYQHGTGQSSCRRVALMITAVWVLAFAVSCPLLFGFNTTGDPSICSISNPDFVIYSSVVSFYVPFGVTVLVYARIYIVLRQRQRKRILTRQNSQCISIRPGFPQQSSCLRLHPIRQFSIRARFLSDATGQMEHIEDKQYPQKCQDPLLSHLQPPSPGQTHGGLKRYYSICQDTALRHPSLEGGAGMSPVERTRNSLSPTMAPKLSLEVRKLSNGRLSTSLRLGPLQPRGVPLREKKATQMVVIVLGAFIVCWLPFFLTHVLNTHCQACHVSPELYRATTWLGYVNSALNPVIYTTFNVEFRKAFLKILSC
Description: Binding affinity towards dopamine D3 receptor in ventral striatal membranes of sprague-dawley rat brain by using [3H]-PD 128907 as radioligand

| Structure (SMILES) | Ki [1] | Ki [2] | Selectivity [3] | Selectivity [4] | Ki [5] |
| --- | --- | --- | --- | --- | --- |
| CCCN1CCC2=C(CCc3ccccc32)C1 | 1120 nM | 84 nM | 18 | 1 | 63 nM |
| CCCCCN1CCC2=C(CCc3ccccc32)C1 | 1060 nM | 46 nM | 28 | 1 | 38 nM |
| COc1ccccc1N1CCN(CCCCNC(=O)c2ccc3ccccc3c2)CC1 [BP-897] | 636 nM | 162 nM | – | – | – |
| CCN1CCC2=C(CCc3ccccc32)C1 | – | – | – | – | 183 nM |
| c1ccc(CCN2CCC3=C(CCc4ccccc43)C2)cc1 | 819 nM | 3290 nM | 10 | 39 | 84 nM |
| O=C(NCCCCN1CCC2=C(CCc3ccccc32)C1)c1ccc2ccccc2c1 | 993 nM | 811 nM | 163 | 133 | 6.1 nM |
| c1ccc(CCCCN2CCC3=C(CCc4ccccc43)C2)cc1 | 696 nM | 59 nM | 9 | 1 | 74 nM |
| c1ccc(CCCN2CCC3=C(CCc4ccccc43)C2)cc1 | – | – | – | – | 103 nM |
| CCCCN1CCC2=C(CCc3ccccc32)C1 | 1570 nM | 122 nM | 62 | 5 | 25 nM |
